According to patent US20090182149A1, “SALT OF SULFINYLBENZIMIDAZOLE COMPOUND, AND CRYSTAL AND AMORPHOUS FORM THEREOF” (priority 2006, published 2009):

Tested on: gastric secretion (gastric acid output) in chronic gastrostormy tube-implanted dogs
Test: Gastric secretion inhibitory action in chronic gastrostormy tube-implanted dogs (histamine-stimulated)
Type: in vivo
Details: i.d., histamine i.v.; for Gastric secretion inhibitory action (%): first day, 1 h 40 min to 2 h after administration; for Gastric secretion inhibition duration (%): second day (24 hours after administration)
Experimental: Gastric Secretion Inhibitory Action in Chronic Gastrostormy Tube-Implanted Dogs
Large dogs (body weight: 14-19 kg) having chronic gastrostormy tubes implanted were used to examine the gastric secretion inhibitory action and gastric secretion inhibitory action durations of the example compounds. The experiment was conducted over a period of 2 days. On the first day, histamine (50 or 75 μg/kg/h) was continuously administered intravenously for 3 hours and gastric juice was taken every 20 minutes. One hour after starting histamine administration, the example compound suspended or dissolved in a 0.5% methylcellulose solution was administered to the duodenum through an indwelling catheter at a dose of 0.1 ml/kg. The gastric secretion inhibitory action of the example compound was examined for 2 hours thereafter. On the second day (24 hours after administration of the example compound), histamine was continuously administered intravenously for 2 hours and gastric juice was taken every 20 minutes to examine the gastric secretion inhibitory action duration. After measuring the gastric juice volume, 0.5 ml of gastric juice was sampled and subjected to neutralization titration to pH 7.0 with a 0.04 mol/l sodium hydroxide solution to measure the acid concentration. The acid concentration was multiplied by the gastric juice volume to determine the gastric acid output. The gastric secretion inhibitory action was evaluated by the gastric secretion inhibition (%) on the first day. The gastric secretion inhibitory action (%) was determined by the formula shown below. Where two or more cases were examined, the average of all the cases was determined.
Gastric secretion inhibitory action (%)=(A−B)/A×100
[A]: Gastric acid output during 20 minutes, from 40 minutes to 1 hour after start of histamine administration [B]: Gastric acid output during 20 minutes, from 1 hour and 40 minutes to 2 hours after administration of example compound
The gastric secretion inhibitory action duration was evaluated by the gastric secretion inhibition (%) on the second day. The gastric secretion inhibitory action duration (%) was determined by the formula shown below.
Gastric secretion inhibitory action duration (%)=(C−D)/C×100
[C]: Total gastric acid output from start to one hour after histamine administration on the first day [D]: Total gastric acid output from start to one hour after histamine administration on the second day

## Cc1cnc(C[S+]([O-])c2nc3ccccc3[n-]2)c(C)c1OCC1COC(C)(C)OC1.[Na+] [Compound A, Sodium salt of (R)-2-({[4-(2,2-dimethyl-1,3-dioxan-5-yl)methoxy-3,5-dimethylpyridin-2-yl]methyl}sulfinyl)-1H-benzimidazole]
0.1 mg/kg, average of 4 cases
  Gastric secretion inhibitory action (%): 8%
0.1 mg/kg, 4 cases
  Gastric secretion inhibition duration (%): 6%
0.2 mg/kg, average of 4 cases
  Gastric secretion inhibitory action (%): 65%
0.2 mg/kg, 4 cases
  Gastric secretion inhibition duration (%): 46%
0.4 mg/kg, average of 10 cases
  Gastric secretion inhibitory action (%): 97%
0.4 mg/kg, 10 cases
  Gastric secretion inhibition duration (%): 77%
0.8 mg/kg, average of 8 cases
  Gastric secretion inhibitory action (%): 100%
0.8 mg/kg, 8 cases
  Gastric secretion inhibition duration (%): 89%
